The source of these data is patent publication US7807662B2, “Platinum IV complex inhibitor” (University of South Florida, priority 2004, dated 2010).

Assay [1] has as its target T1, Stat1 (Homo sapiens, UniProt P42224).
T1 construct: nuclear extracts of equal total protein containing active Stat1, Stat3 and Stat5 were pre-incubated with different concentrations of IS3 295; endogenous in cells; host or cells: nuclear extracts
T1 sequence (P42224 2-750 limits assumed): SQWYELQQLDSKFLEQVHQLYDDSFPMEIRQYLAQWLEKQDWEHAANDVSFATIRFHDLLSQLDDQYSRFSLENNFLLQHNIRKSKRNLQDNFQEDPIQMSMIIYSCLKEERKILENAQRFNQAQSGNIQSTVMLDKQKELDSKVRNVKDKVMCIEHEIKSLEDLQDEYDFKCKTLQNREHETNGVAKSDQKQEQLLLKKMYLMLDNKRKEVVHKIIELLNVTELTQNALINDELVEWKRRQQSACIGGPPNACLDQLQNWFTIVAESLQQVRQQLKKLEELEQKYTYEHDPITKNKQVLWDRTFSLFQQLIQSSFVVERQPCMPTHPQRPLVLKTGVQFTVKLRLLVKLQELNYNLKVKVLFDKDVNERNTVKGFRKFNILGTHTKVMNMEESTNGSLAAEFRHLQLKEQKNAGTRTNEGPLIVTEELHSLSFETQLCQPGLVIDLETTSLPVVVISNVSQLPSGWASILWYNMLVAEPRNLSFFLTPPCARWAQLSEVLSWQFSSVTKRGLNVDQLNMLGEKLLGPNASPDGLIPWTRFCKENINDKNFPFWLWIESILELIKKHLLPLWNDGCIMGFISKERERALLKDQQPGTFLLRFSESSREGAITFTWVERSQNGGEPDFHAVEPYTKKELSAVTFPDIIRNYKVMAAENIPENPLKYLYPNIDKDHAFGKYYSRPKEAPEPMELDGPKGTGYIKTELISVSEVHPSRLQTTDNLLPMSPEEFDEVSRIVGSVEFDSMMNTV
The experiment in a line: In vitro DNA-binding activity assay with EMSA, Stat1. In kind it is biochemical. Particulars: hSIE probe, pre-incubation with compound. The procedure: (§1) Nuclear extract preparation and gel shift assays—Nuclear extract preparation from v-Src-transformed fibroblasts (NIH3T3/v-Src) or tumor cell lines and electrophoretic mobility shift assay were carried out as previously described (11, 13, 37). The ^32P-labeled oligonucleotide probes used were hSIE (high affinity sis-inducible element, m67 variant, 5′-[…]) (SEQ ID NO:1) that bound Stat1 and Stat3 (13, 45) and MGFe (mammary gland factor element from the bovine β-casein gene promoter, 5′-AGATTTCTAGGAATTCAA) (SEQ ID NO:2) for Stat1 and Stat5 binding (46, 47). Except where indicated, inhibitor compound was pre-incubated with the nuclear extract for 30 minutes at room temperature prior to incubation with radiolabeled probe.
(§2) Compounds from the NCI diversity set were evaluated for inhibition of Stat3 signaling in in vitro DNA-binding activity assay with analysis of electrophoretic mobility shift assay (EMSA). A platinum (IV) complex, IS3 295 (NSC 295558) (FIG. 1E), was identified as potent inhibitor of Stat3, which was further characterized in a number of assays for its anti-Stat3 property. […]

Assay [2] has as its target E2F1 (Homo sapiens, UniProt Q01094). The experiment in a line: In vitro DNA-binding activity assay with EMSA, E2F1 (control). In kind it is biochemical. Particulars: DHFR promoter sequence probe. The source says: In control studies, the effect of IS3 295 was investigated on the DNA-binding activity of E2F1 that was unrelated to Stat proteins.
(Mobility shift assays separate free from complexed probe on a gel.)

Assay [3] addresses T2, Stat3 (Homo sapiens, UniProt P40763).
T2 construct: nuclear extracts of equal total protein containing active Stat1, Stat3 and Stat5 were pre-incubated with different concentrations of IS3 295; endogenous in cells; host or cells: nuclear extracts
Particulars: from reference 35; cited from earlier work.

The subject of assay [4] is Stat5. The experiment in a line: In vitro DNA-binding activity assay with EMSA, Stat5. In kind it is biochemical. Particulars: MGFe probe. The method, then: as §1, §2
Assay [5] deals with T2, Stat3. The assay can be described thus: In vitro DNA-binding activity assay with EMSA, Stat3. In kind it is biochemical. Particulars: hSIE probe, pre-incubation with compound. The procedure:
as §1, §2

T2 sequence (P40763 2-770 limits assumed, species assumed): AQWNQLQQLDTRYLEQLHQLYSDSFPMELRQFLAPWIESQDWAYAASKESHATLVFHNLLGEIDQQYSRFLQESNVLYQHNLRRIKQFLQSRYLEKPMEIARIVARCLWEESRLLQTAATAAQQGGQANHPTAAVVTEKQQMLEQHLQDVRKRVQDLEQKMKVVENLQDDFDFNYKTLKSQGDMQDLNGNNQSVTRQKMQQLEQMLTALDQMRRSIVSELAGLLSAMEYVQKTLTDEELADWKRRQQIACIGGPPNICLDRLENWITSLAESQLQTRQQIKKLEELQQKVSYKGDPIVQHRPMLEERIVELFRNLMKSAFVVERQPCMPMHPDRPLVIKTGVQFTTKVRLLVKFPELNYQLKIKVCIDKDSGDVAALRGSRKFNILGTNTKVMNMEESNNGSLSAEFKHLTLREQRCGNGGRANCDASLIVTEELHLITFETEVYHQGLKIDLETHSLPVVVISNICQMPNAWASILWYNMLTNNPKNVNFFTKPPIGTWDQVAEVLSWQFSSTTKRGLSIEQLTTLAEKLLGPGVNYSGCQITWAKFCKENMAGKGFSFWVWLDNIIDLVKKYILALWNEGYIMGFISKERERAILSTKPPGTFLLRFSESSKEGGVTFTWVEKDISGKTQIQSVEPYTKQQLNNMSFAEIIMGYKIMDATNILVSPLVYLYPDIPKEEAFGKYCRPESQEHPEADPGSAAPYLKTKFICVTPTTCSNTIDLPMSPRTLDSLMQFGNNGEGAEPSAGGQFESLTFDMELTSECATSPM
E2F1, sequence (Q01094 whole entry, species assumed): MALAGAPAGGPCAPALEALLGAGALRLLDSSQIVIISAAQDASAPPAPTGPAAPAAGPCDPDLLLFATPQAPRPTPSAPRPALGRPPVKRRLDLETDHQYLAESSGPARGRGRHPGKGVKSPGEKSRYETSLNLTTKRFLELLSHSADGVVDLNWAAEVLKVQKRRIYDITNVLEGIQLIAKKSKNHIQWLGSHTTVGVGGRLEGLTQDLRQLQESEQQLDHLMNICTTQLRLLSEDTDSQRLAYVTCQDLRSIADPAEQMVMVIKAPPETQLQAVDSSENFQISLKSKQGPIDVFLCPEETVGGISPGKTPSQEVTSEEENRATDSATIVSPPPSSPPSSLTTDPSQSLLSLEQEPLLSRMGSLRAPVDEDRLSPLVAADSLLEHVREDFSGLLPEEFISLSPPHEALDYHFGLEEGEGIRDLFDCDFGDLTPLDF

With `N.N.[Cl][Pt][Cl]` [cisplatin, reference compound], the “level of DNA-binding activity of Stat1” value in assay [1] is given as “no detectable effect”. In assay [2], the “E2F1 DNA-binding activity” value was “no detectable effect”. Also, in assay [3], the “effect on Stat3 activity” value is “no effect”. Besides, the “level of DNA-binding activity of Stat5:Stat5 dimers” value in assay [4] is “no detectable effect”. Also, the “level of DNA-binding activity of Stat3” value in assay [5] is on record as “no detectable effect”.
